# Several values for one entry are separate records, joined by “and”; a condition that tells them apart may be missing. Identical values can stand only once.
# Legend:
# normal C57BL/6J mice = test: Oral sucrose test, postprandial blood glucose; type: in vivo; settings: for Blood glucose levels: 30 min after sucrose 4 g/kg, n = 8, in mmol/L (unit assumed); for Rate of blood glucose reduction: vs model group, 30 min after sucrose
# Excerpt: Male C57BL/6J mice of SPF grade, aged 6–8 weeks and weighing 18–22 g, were obtained from the Experimental Animal Science Department of Peking University. The mice were housed in a controlled environment with a 12:12 light/dark cycle and a constant temperature. They were provided with standard pellet feed and given free access to drinking water. To ensure acclimatization, the mice were allowed to adjust to the diet and housing conditions for one week prior to the experiment. All animal experiments were performed in compliance with the relevant laws and institutional guidelines for the care and use of laboratory animals in China. The experiments were approved by the Laboratory Animal Management and Ethics Committee of Peking University (LA2021443). Additionally, the certification number for the laboratory animal personnel is 1120111300011.
# The 16 flavonoids were subsequently evaluated for their potential antihyperglycemic effects by using the oral sucrose test, which is commonly used to evaluate intestinal α-glucosidase inhibition in vivo [62]. Normal C57BL/6J mice were randomly divided into model groups and the 16 flavonoid compound groups (n = 8 per group), respectively. The flavonoids at different concentrations were suspended in 0.5% sodium carboxymethyl cellulose (CMC-Na). […] Fifteen minutes after drug administration, the mice were given a sucrose solution (4 g/kg). Blood samples were collected from the tail vein at 30 min after sucrose loading, and blood glucose levels were measured using an Accu-Chek Performa glucometer (Roche Diagnostics, SN: 79508621393, Shanghai, China). The rate of blood glucose reduction was calculated using the following Formula (4):(4) The rate of blood glucose reduction%=the model blood glucose-the sample blood glucose/the model blood glucose×100%
# α-glucosidase [1] = molecular target: T1, α-glucosidase (Saccharomyces cerevisiae, UniProt P53341); test: CD spectroscopy, secondary structure of α-glucosidase (BeStSel); settings: for β-turn: free enzyme 11.7; for β-sheet: free enzyme 28.8; for random coil: free enzyme 45.2; for α-helix: free enzyme 14.4
# T1 construct: purchased Shanghai Yuanye Biotechnology Co., Shanghai, China Lot No. M23HS178879 (catalogue number not given)
# Procedure: CD spectra in the far-UV region (190–250 nm) were scanned by using a CD spectrometer (JASCO-1.5 Tokyo, Japan). […] The slit width was set to 1 nm, and the baseline was calibrated with PBS (phosphate buffered saline). CD spectra were averaged over three scans under a constant nitrogen flow, with the buffer signal subtracted. The results were analyzed using the BeStSel database (https://bestsel.elte.hu/index.php, accessed on 16 May 2025).
# α-glucosidase [2] = molecular target: T1, α-glucosidase; test: Mixture effects of flavonoid combinations on α-glucosidase; type: biochemical
# Procedure: (§1) The α-glucosidase inhibitory effects of flavonoids were evaluated as in a previous report with slight modifications (including changes in the concentrations of the enzyme, substrate, and Na2CO3). Briefly, 50 μL of phosphate-buffered saline (PBS, 0.1 M, pH 6.8), the test compound, and α-glucosidase (0.2 U/mL) were preincubated in a 96-well plate at 37 °C for 10 min. The reaction was then initiated by adding 50 μL of 5 mM pNPG as the substrate. Subsequently, the 96-well plate was incubated for an additional 30 min at 37 °C, then 50 μL of 0.2 M Na2CO3 was added to terminate the reaction. Absorbance was measured at under 405 nm.
# The inhibitory activity of the composition was evaluated using the same method described in Section 3.2. […] The combination index (CI, Formula (3)) was subsequently used to assess the interactions between the compounds [60].(2) Y=Bottom+Top−Bottom/1+10^^((LogIC50−X)×HillSlope)
# In Formula (3), (D)j represents the concentration of component j in the mixture needed to achieve an effect of x, while (Dx)j denotes the concentration of component j required to produce the same effect when acting alone. Here, x refers to the inhibition rate produced by the composition, and n indicates the number of individual compounds in the composition.
# α-glucosidase [3] = molecular target: T1, α-glucosidase; test: Inhibitory kinetic analysis (Lineweaver–Burk plot); type: biochemical; settings: Lineweaver–Burk plots, pNPG 0.31–20 mM
# Procedure: The type of inhibition was determined by using the kinetics curve and the Lineweaver–Burk plot. […] These compounds were incubated with α-glucosidase at 37 °C for 30 min. After incubation, various concentrations of pNPG (0.31–20 mM) were added, and absorbance was measured at 405 nm. The Lineweaver–Burk plot was obtained by plotting 1/[S] on the x-axis and 1/v on the y-axis, where [S] represents substrate concentration and v represents the reaction velocity.
# [4] = molecular target: T2, Saccharomyces cerevisiae α-glucosidase (Saccharomyces cerevisiae, UniProt P53341); test: biochemical; settings: IC50, α-glucosidase 0.2 U/mL, 5 mM pNPG, PBS pH 6.8, 37 °C
# T2 construct: purchased Shanghai Yuanye Biotechnology Co., Shanghai, China Lot No. M23HS178879 (catalogue number not given)
# Procedure: as §1
# [5] = 20 mg/kg oral (acarbose, positive control of each experiment)
# [6] = molar ratio 10:1, α-glucosidase 4 μM
# [7] = molar ratio 40:1, α-glucosidase 4 μM
# [8] = molar ratio compound:α-glucosidase 10:1, α-glucosidase 4 μM
# [9] = calculated from the dose–response curve
# [10] = each compound alone at its IC15 concentration, Com1 = mixture of the four at IC15 (117 μM in total)
# T2 sequence (P53341 whole entry): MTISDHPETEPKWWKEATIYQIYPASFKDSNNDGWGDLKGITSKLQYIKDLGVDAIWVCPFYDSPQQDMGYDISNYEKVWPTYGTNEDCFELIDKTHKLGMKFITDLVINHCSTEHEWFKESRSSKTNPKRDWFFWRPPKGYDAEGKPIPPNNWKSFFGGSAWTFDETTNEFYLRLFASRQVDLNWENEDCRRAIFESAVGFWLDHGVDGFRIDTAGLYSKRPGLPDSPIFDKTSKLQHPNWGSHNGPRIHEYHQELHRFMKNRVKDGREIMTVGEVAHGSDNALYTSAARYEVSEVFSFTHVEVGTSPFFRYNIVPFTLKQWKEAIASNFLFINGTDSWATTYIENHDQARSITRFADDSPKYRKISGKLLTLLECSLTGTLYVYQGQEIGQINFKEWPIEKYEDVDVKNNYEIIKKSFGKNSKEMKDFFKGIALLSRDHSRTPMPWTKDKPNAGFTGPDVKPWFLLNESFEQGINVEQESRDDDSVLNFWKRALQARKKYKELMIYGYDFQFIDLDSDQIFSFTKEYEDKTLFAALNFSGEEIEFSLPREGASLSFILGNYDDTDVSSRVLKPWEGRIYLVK
# T1 sequence (P53341 whole entry): as above
SMILES,β-turn (α-glucosidase [1]; [6]) [%],β-sheet (α-glucosidase [1]; [6]) [%],random coil (α-glucosidase [1]; [6]) [%],β-turn (α-glucosidase [1]; [7]) [%],α-helix (α-glucosidase [1]; [7]) [%],β-sheet (α-glucosidase [1]; [7]) [%],random coil (α-glucosidase [1]; [7]) [%],α-helix (α-glucosidase [1]; [8]) [%],IC05 (α-glucosidase [2]; [9]) [µM],type of inhibition on α-glucosidase (α-glucosidase [3]),Blood glucose levels (normal C57BL/6J mice; 10 mg/kg oral),Rate of blood glucose reduction (normal C57BL/6J mice; 10 mg/kg oral) [%],Blood glucose levels (normal C57BL/6J mice; 50 mg/kg oral),Rate of blood glucose reduction (normal C57BL/6J mice; 50 mg/kg oral) [%],Blood glucose levels (normal C57BL/6J mice; 100 mg/kg oral),Rate of blood glucose reduction (normal C57BL/6J mice; 100 mg/kg oral) [%],IC50 [4] [µM],Blood glucose levels (normal C57BL/6J mice; 25 mg/kg oral),Rate of blood glucose reduction (normal C57BL/6J mice; 25 mg/kg oral) [%],other results
"C[C@H]1O[C@H](O[C@H]2[C@H](O)[C@@H](O)[C@@H](O[C@H]3[C@H](O)[C@@H](O)C(O)O[C@@H]3CO)O[C@@H]2CO)[C@H](O)[C@@H](O)[C@@H]1N[C@H]1C=C(CO)[C@@H](O)[C@H](O)[C@H]1O (stereo partly drawn) [acarbose, reference compound]",–,–,–,–,–,–,–,–,–,–,–,–,–,–,–,–,–,–,–,Blood glucose levels (normal C57BL/6J mice; [5]): 7.39 ± 0.70 and 7.38 ± 0.95 and 7.90 ± 0.56 and 8.09 ± 0.60 and 7.16 ± 0.52 and 7.98 ± 0.58; Rate of blood glucose reduction (normal C57BL/6J mice; [5]): 49.31% and 47.09% and 48.83% and 44.13% and 46.72% and 50.02%
"O=c1c(O)c(-c2ccc(O)c(O)c2)oc2cc(O)cc(O)c12 [C1, quercetin]",13.1,23.6,49.1,12.5,11.1,27.9,48.5,14.0,0.82,mixed-type inhibitors,14.46 ± 1.06,0.77,13.41 ± 0.41,7.98,12.26 ± 1.65,15.87,–,–,–,"inhibition rate against α-glucosidase (α-glucosidase [2]; each compound alone at its IC05 concentration, Com2 = mixture of the seven at IC05 (381.58 μM in total)): 4.70 ± 1.66%; inhibition rate against α-glucosidase (α-glucosidase [2]; [10]): 17.16 ± 0.75%"
"O=c1c(O[C@@H]2O[C@H](CO)[C@@H](O)[C@H](O)[C@H]2O)c(-c2ccc(O)c(O)c2)oc2cc(O)cc(O)c12 [C10, isoquercitrin]",14.2,24.0,49.3,13.1,12.5,16.6,57.8,12.4,–,competitive inhibitor,12.41 ± 2.07,7.66,10.91 ± 1.78,18.82,–,–,71.7 ± 7.62,12.21 ± 2.08,9.15,IC15 (concentration corresponding to a 15% inhibition rate) (α-glucosidase [2]; [9]): 40 µM; inhibition rate against α-glucosidase (α-glucosidase [2]; [10]): 14.93 ± 4.73%
"C[C@@H]1O[C@@H](OC[C@H]2O[C@@H](Oc3c(-c4ccc(O)c(O)c4)oc4cc(O)cc(O)c4c3=O)[C@H](O)[C@@H](O)[C@@H]2O)[C@H](O)[C@H](O)[C@H]1O [C6, rutin]",12.1,26.9,45.5,17.6,9.30,14.3,58.8,15.5,–,–,12.81 ± 1.23,11.49,11.83 ± 0.71,18.31,–,–,211 ± 11.2,–,–,Blood glucose levels (normal C57BL/6J mice; 2 mg/kg oral): 14.68 ± 1.00; Rate of blood glucose reduction (normal C57BL/6J mice; 2 mg/kg oral): -1.38%
"O=c1c(O[C@@H]2O[C@H](CO)[C@@H](O)[C@H](O)[C@H]2O)c(-c2ccc(O)cc2)oc2cc(O)cc(O)c12 [C7, astragalin]",–,–,–,–,–,–,–,–,–,–,–,–,–,–,–,–,–,–,–,"effect on postprandial blood glucose (normal C57BL/6J mice; 30 min after the sucrose load, compared to the model group, C7 at 10, 50 or 250 mg/kg): no glucose-lowering effect"
"O=C1c2ccc(O)cc2OCC1c1ccc(O)cc1 (stereo not drawn) [C28, dihydrodaidzein]",14.4,25.6,50.7,12.9,10.9,20.7,55.5,9.30,98.27,mixed-type inhibitors,12.74 ± 0.75,12.61,11.39 ± 1.48,21.87,–,–,412 ± 11.4,–,–,Blood glucose levels (normal C57BL/6J mice; 2 mg/kg oral): 14.84 ± 0.62; Rate of blood glucose reduction (normal C57BL/6J mice; 2 mg/kg oral): -1.80%
"O=c1c(-c2ccc(O)cc2)coc2cc(O)cc(O)c12 [C8, genistein]",–,–,–,–,–,–,–,–,–,–,–,–,13.26 ± 0.72,9.01,12.06 ± 0.82,17.24,–,13.91 ± 1.00,4.55,–
"O=C1C[C@@H](c2ccc(O)cc2)Oc2cc(O)cc(O)c21 [C5, naringenin]",12.8,20.6,53.3,13,15.3,25.3,46.5,13.2,26.47,mixed-type inhibitors,–,–,–,–,12.39 ± 1.03,19.76,–,13.23 ± 0.63,14.33,Blood glucose levels (normal C57BL/6J mice; 5 mg/kg oral): 14.56 ± 1.96; Rate of blood glucose reduction (normal C57BL/6J mice; 5 mg/kg oral): 5.67%
"O=c1c(O)c(-c2ccc(O)cc2)oc2cc(O)cc(O)c12 [C2, kaempferol]",12.5,25.3,48.2,13.3,9.70,23.9,53.1,14.1,–,mixed-type inhibitors,12.68 ± 1.47,9.06,12.79 ± 0.81,8.25,11.88 ± 1.62,14.80,–,–,–,–

# From publication PMC12114633, “α-Glucosidase Inhibition Mechanism and Anti-Hyperglycemic Effects of Flavonoids from Astragali Radix and Their Mixture Effects” (Pharmaceuticals, 2025)
